Test results from US20110046131A1, “PURINES AS PKC-THETA INHIBITORS” (N.V. Organon and Pharmacopeia, LLC, priority 2006, published 2011).

Columns and labels:
Assay type in all cases: biochemical
SGK kinase = target: T1, SGK kinase (Homo sapiens, UniProt O00141); assay: IC50 for SGK kinase (selectivity); settings: for IC50: read-out: IC50-SGK1
T1 sequence (O00141 1-431): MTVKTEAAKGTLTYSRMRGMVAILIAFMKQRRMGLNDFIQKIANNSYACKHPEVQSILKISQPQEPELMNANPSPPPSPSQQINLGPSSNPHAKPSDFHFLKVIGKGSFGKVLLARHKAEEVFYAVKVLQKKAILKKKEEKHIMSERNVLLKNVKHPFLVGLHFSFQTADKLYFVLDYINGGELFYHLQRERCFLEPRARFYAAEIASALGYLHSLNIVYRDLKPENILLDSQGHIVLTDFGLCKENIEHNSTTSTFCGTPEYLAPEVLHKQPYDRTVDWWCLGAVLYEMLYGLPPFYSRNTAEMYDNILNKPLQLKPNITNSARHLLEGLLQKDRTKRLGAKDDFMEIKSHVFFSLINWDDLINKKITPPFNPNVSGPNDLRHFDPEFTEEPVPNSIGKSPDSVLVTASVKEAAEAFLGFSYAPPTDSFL
Procedure: Entries identified with “1” had values above 250 nM; entries identified with “2” had values above 1 μM; entries identified with “3” had values above 10 μM.

PKC delta = target: T2, PKC delta (Homo sapiens, UniProt Q05655); assay: Ki Pan Vera (PV) potency for PKC delta; settings: Ki Pan Vera (PV) of PKC delta
T2 construct: purchased Pan Vera
T2 sequence (Q05655 whole entry): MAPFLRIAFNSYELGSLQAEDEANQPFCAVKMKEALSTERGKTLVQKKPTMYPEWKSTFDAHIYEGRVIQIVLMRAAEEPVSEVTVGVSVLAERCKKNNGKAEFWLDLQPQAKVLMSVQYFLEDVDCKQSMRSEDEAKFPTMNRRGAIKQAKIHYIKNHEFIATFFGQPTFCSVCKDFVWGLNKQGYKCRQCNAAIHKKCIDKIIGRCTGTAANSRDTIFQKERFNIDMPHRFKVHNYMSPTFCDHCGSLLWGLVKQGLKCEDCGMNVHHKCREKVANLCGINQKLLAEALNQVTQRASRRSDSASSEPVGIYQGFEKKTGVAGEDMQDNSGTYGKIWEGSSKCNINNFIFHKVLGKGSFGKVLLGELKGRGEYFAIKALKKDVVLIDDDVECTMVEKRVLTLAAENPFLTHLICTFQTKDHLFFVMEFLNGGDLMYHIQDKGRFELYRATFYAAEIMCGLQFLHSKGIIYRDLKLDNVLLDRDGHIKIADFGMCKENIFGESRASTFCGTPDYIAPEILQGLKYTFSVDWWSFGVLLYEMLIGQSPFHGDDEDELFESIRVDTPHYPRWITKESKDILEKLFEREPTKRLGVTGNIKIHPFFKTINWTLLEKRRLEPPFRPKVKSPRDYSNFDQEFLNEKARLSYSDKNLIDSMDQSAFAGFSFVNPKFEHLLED
Procedure: [The source words this procedure for another target and reports this target under the same test.] (§1) For Ki Pan Vera (PV) of PKCθ, entries identified with “A” had values below 100 nM; entries identified with “B” had values below 1 μM; and entries identified with “C” had values below 10 μM.

PKC alpha = target: T3, PKC alpha (Homo sapiens, UniProt P17252); assay: Ki Pan Vera (PV) potency for PKC alpha; settings: Ki Pan Vera (PV) of PKC alpha
T3 construct: purchased Pan Vera
Procedure: [The source words this procedure for another target and reports this target under the same test.] as §1

PKCθ = target: T4, PKCθ (Homo sapiens, UniProt Q04759); assay: Ki Pan Vera (PV) potency for PKCθ; settings: Ki Pan Vera (PV) of PKCθ
T4 construct: purchased Pan Vera
T4 sequence (Q04759 whole entry): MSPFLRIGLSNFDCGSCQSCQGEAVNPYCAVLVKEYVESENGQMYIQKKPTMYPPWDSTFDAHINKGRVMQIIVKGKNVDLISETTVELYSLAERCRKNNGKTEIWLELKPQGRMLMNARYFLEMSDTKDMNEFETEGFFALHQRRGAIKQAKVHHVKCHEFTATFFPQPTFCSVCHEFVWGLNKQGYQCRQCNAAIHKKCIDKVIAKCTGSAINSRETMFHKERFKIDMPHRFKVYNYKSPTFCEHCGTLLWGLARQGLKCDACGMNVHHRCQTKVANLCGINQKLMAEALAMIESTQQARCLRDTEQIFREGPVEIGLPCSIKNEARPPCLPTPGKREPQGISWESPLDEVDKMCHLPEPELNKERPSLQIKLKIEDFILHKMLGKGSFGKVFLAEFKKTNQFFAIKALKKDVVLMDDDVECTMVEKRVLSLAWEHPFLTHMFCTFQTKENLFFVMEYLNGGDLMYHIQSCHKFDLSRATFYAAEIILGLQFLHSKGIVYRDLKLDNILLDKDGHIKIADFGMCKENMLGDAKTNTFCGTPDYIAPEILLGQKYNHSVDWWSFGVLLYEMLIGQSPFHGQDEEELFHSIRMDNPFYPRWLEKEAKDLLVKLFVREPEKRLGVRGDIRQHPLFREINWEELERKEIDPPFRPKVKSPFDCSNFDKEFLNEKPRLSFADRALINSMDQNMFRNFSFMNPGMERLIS
Procedure: as §1

Compound	IC50-SGK1 (SGK kinase)	Ki (PKC delta) [nM]	Ki (PKC alpha) [nM]	Ki (PKCθ) [nM]	IC50 (SGK kinase) [nM]
Fc1ccc(CNc2ncc3nc(-c4c(F)cccc4Cl)n(C[C@H]4CCNC4)c3n2)cc1F [Compound 174]	Inactive	> 1000	> 1000	< 1000	
Fc1ccc(CNc2ncc3nc(-c4c(Cl)cccc4Cl)n(CCC4CCNCC4)c3n2)cc1F [Compound 118]		> 1000	> 1000	< 1000	> 10000
NCCCCCCn1c(-c2ccccc2Cl)nc2cnc(NCc3ccccc3F)nc21 [Compound 207]	Inactive	> 1000	> 10000	< 10000	
C[C@H](Nc1ncc2nc(-c3c(Cl)cccc3Cl)n(CC3CCNC3)c2n1)c1ccccc1F (some centres unmarked) [Compound 138]	Inactive	> 1000	> 1000	< 1000	
NCC1CCC(n2c(-c3cccc(F)c3F)nc3cnc(NCc4ccccc4F)nc32)CC1 (centres unmarked) [Compound 222]	Inactive				
Fc1ccc(CNc2ncc3nc(-c4ccccc4Cl)n(C[C@@H]4CCCNC4)c3n2)cc1F [Compound 136]	Inactive	> 1000	> 1000	< 1000	
Fc1ccccc1CNc1ncc2nc(-c3c(Cl)cccc3Cl)n(C[C@@H]3CCCNC3)c2n1 [Compound 110]		> 1000	> 1000	< 100	> 1000
Clc1cccc(CNc2ncc3nc(-c4c(Cl)cccc4Cl)n(CC4CCNC4)c3n2)c1 (centres unmarked) [Compound 157]		> 1000	> 1000	< 1000	
Fc1cccc(CNc2ncc3nc(-c4c(F)cccc4Cl)n(C[C@@H]4CCCNC4)c3n2)c1 [Compound 123]		> 1000	> 1000	< 1000	
Fc1cccc(CNc2ncc3nc(-c4c(Cl)cccc4Cl)n(C[C@H]4CCNC4)c3n2)c1 [Compound 127]	Inactive	> 1000	> 1000	< 1000	
Fc1ccc(CNc2ncc3nc(-c4c(Cl)cccc4Cl)n(C[C@H]4CCNC4)c3n2)cc1F [Compound 121]	Inactive	> 1000	> 1000	< 100	
Fc1ccccc1CNc1ncc2nc(-c3c(F)cccc3Cl)n(C[C@H]3CCCNC3)c2n1 [Compound 156]		> 1000	> 10000	< 1000	> 1000
Fc1ccc(CNc2ncc3nc(-c4c(F)cccc4Cl)n(CC4CCNC4)c3n2)cc1F (centres unmarked) [Compound 223]		> 1000	> 1000	< 1000	> 10000
Fc1ccc(Cl)cc1CNc1ncc2nc(-c3c(F)cccc3Cl)n(C[C@@H]3CCCNC3)c2n1 [Compound 115]		> 1000	> 10000	< 1000	> 10000
Clc1cccc(CNc2ncc3nc(-c4c(Cl)cccc4Cl)n(C[C@H]4CCNC4)c3n2)c1 [Compound 135]	Inactive	> 1000	> 1000	< 1000	
Clc1cccc(Cl)c1-c1nc2cnc(NCc3cccs3)nc2n1C[C@@H]1CCCNC1 [Compound 119, (R)-8-(2,6-dichlorophenyl)-9-(piperidin-3-ylmethyl)-N-(thiophen-2-ylmethyl)-9H-purin-2-amine]		> 1000	> 1000	< 100	
Fc1cccc(Cl)c1-c1nc2cnc(NCc3cccs3)nc2n1C[C@@H]1CCCNC1 [Compound 169]		> 1000	> 10000	< 1000	
Fc1cccc(Cl)c1-c1nc2cnc(NCc3ccc(Cl)c(Cl)c3)nc2n1C[C@@H]1CCCNC1 [Compound 132]		> 1000	> 10000	< 10000	
Clc1cccc(Cl)c1C1=Nc2cnc(NCc3nccs3)nc2C1C[C@@H]1CCCNC1 (some centres unmarked) [Compound 137]	Inactive				
NC[C@H]1CC[C@H](n2c(-c3ccccc3Cl)nc3cnc(NCc4ccccc4F)nc32)CC1 [Compound 175]	Inactive	> 1000		< 1000	

Compound	IC50-SGK1 (SGK kinase)	Ki (PKC delta) [nM]	Ki (PKC alpha) [nM]	Ki (PKCθ) [nM]	IC50 (SGK kinase) [nM]
Fc1cccc(Cl)c1-c1nc2cnc(NCc3ccccc3)nc2n1C[C@@H]1CCCNC1 [Compound 145]		> 1000	> 1000	< 1000	
Fc1ccc(CNc2ncc3nc(-c4c(Cl)cccc4Cl)n(C[C@H]4CCNC4)c3n2)c(F)c1 [Compound 140]		> 1000	> 1000	< 1000	
Fc1ccc(Cl)cc1CNc1ncc2nc(-c3c(Cl)cccc3Cl)n(CC3CCNC3)c2n1 (centres unmarked) [Compound 159]		> 1000	> 1000	< 1000	
C[C@H](Nc1ncc2nc(-c3c(F)cccc3Cl)n(C[C@H]3CCNC3)c2n1)c1ccccc1F [Compound 226]		> 1000	> 1000	< 1000	
Fc1ccccc1CNc1ncc2nc(-c3c(Cl)cccc3Cl)n(C[C@@H]3CCCNC3)c2n1 [Compound 111]	Inactive		> 1000		
Clc1cccc(Cl)c1-c1nc2cnc(NCc3cccs3)nc2n1CCC1CCNCC1 [Compound 203]		> 1000	> 10000	< 1000	
Fc1cccc(CNc2ncc3nc(-c4ccccc4Cl)n(C[C@@H]4CCCNC4)c3n2)c1 [Compound 152]		> 1000	> 1000	< 1000	
Clc1cccc(Cl)c1-c1nc2cnc(NCc3ccccn3)nc2n1CC1CCNC1 (centres unmarked) [Compound 262]		> 1000	> 1000	< 1000	
Fc1ccccc1CNc1ncc2nc(-c3cccc(F)c3F)n(CCC3CCNCC3)c2n1 [Compound 238]		> 1000	> 1000	< 1000	
Fc1ccc(CNc2ncc3nc(-c4c(F)cccc4Cl)n(CC4CCNC4)c3n2)cc1Cl (centres unmarked) [Compound 204]		> 1000	> 10000	< 1000	
Fc1ccccc1CNc1ncc2nc(-c3c(Cl)cccc3Cl)n(C[C@@H]3CCNC3)c2n1 [Compound 220]		> 1000	> 1000	< 1000	
Clc1cccc(Cl)c1C1=Nc2cnc(NCc3ccsc3)nc2C1C[C@@H]1CCCNC1 (some centres unmarked) [Compound 114]	Inactive				
Fc1ccccc1CNc1ncc2nc(-c3c(Cl)cccc3Cl)n(C3CCNCC3)c2n1 [Compound 221]	Inactive				
Fc1cccc(CNc2ncc3nc(-c4c(Cl)cccc4Cl)n(C[C@@H]4CCCNC4)c3n2)c1 [Compound 103]		> 250	> 1000	< 100	
Cc1ccsc1CNc1ncc2nc(-c3c(Cl)cccc3Cl)n(C[C@@H]3CCCNC3)c2n1 [Compound 201]	Inactive				
Fc1ccc(CNc2ncc3c(n2)C(CC2CNCCO2)C(c2c(F)cccc2Cl)=N3)cc1F (centres unmarked) [Compound 215]	Inactive				
NC[C@H]1CC[C@H](n2c(-c3c(Cl)cccc3Cl)nc3cnc(NCc4ccccc4F)nc32)CC1 [Compound 149]		> 1000		< 1000	> 10000
Clc1ccc(CNc2ncc3nc(-c4ccccc4Cl)n(C[C@@H]4CCCNC4)c3n2)cc1Cl [Compound 165]		> 1000	> 10000	< 10000	
Clc1ccc(CNc2ncc3nc(-c4c(Cl)cccc4Cl)n(C[C@@H]4CCCNC4)c3n2)cc1Cl [Compound 107]		> 1000	> 10000	< 1000	
Fc1ccc(CNc2ncc3nc(-c4c(Cl)cccc4Cl)n(CC4CCNC4)c3n2)cc1Cl (centres unmarked) [Compound 139]		> 1000	> 1000	< 1000	
